Experimental findings from patent US20240083861A1, “HSD17B13 INHIBITORS AND USES THEREOF” (FL2022-001, Inc., priority 2020, published 2024) are described below.

The structures appear in SMILES notation.

For this assay, the target named is T1, Recombinant human HSD17B13 enzyme (Homo sapiens, UniProt Q7Z5P4).
T1 sequence (Q7Z5P4 20-300): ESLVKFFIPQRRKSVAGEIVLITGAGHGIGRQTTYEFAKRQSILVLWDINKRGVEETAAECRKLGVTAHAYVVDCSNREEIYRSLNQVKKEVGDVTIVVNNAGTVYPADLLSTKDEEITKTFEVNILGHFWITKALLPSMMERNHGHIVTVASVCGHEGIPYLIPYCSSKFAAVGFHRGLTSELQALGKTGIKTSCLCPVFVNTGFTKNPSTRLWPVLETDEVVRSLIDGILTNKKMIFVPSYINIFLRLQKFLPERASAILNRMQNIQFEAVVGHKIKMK
As to the kind of experiment: HSD17b13 NAD(P)H-Glo biochemical assay. Particulars: 50 uM estradiol, 1 mM NAD+, NAD(P)H-Glo luminescence; read-out: HSD17β13 IC50. A digest of the protocol:
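Recombinant human HSD17B13 in 20 mM Tris pH7.4 with 0.002% Tween-20 and 0.02% BSA was preincubated with inhibitor for 20 minutes at RT. The reaction ran 3 hours at 37° C with 50 uM estradiol and 1 mM NAD+ (final). NADH formed was detected by NAD(P)H-Glo luminescence after 1 hour at RT.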
Usually IC50 stands for the midpoint of a concentration-inhibition curve. As for `CN(c1cc2c(cn1)c(-c1cc(C(F)(F)F)c(F)c(O)c1F)nn2C)C1CCCOC1` (stereo not shown) [Compound 9.44, 2,6-Difluoro-3-(1-methyl-6-(methyl(tetrahydro-2H-pyran-3-yl)amino)-1H-pyrazolo[4,3-c]pyridin-3-yl)-5-(trifluoromethyl)phenol], the half-maximal inhibitory concentration (IC50) is less than 100 nM.
Consider `CCC1COCCN1c1cc2c(cn1)c(-c1cc(C(F)(F)F)c(F)c(O)c1F)nn2C` (stereo not shown) [Compound 9.45, 3-(6-(3-Ethylmorpholino)-1-methyl-1H-pyrazolo[4,3-c]pyridin-3-yl)-2,6-difluoro-5-(trifluoromethyl)phenol], for which the IC50 is less than 100 nM.
Next, `CCN(c1cc2c(cn1)c(-c1cc(C(F)(F)F)c(F)c(O)c1F)nn2C)C1CCC1` [Compound 9.46, 3-(6-(Cyclobutyl(ethyl)amino)-1-methyl-1H-pyrazolo[4,3-c]pyridin-3-yl)-2,6-difluoro-5-(trifluoromethyl)phenol]: less than 100 nM; `COC1CCN(c2cc3c(cn2)c(-c2cc(C(F)(F)F)c(F)c(O)c2F)nn3C)CC1` [Compound 9.47, 2,6-Difluoro-3-(6-(4-methoxypiperidin-1-yl)-1-methyl-1H-pyrazolo[4,3-c]pyridin-3-yl)-5-(trifluoromethyl)phenol]: less than 100 nM; `Cn1nc(-c2cc(C(F)(F)F)c(F)c(O)c2F)c2cnc(N3CCOC4(CC4)C3)cc21` [Compound 9.48, 2,6-Difluoro-3-(1-methyl-6-(4-oxa-7-azaspiro[2.5]octan-7-yl)-1H-pyrazolo[4,3-c]pyridin-3-yl)-5-(trifluoromethyl)phenol]: less than 100 nM.
Then `Cn1nc(-c2cc(C(F)(F)F)c(F)c(O)c2F)c2cnc(N3CCC(O)CC34CC4)cc21` (stereo not shown) [Compound 9.49, 4-(3-(2,4-Difluoro-3-hydroxy-5-(trifluoromethyl)phenyl)-1-methyl-1H-pyrazolo[4,3-c]pyridin-6-yl)-4-azaspiro [2.5]octan-7-ol], with less than 100 nM.
As for `COCCN(c1cc2c(cn1)c(-c1cc(C(F)(F)F)c(F)c(O)c1F)nn2C)C1CCOCC1` [Compound 9.50, 2,6-Difluoro-3-(6-((2-methoxyethyl)(tetrahydro-2H-pyran-4-yl)amino)-1-methyl-1H-pyrazolo[4,3-c]pyridin-3-yl)-5-(trifluoromethyl)phenol], the IC50 was less than 100 nM.
Consider `Cn1nc(-c2cc(C(F)(F)F)c(F)c(O)c2F)c2cnc(N(CC3CC3)C3CCC3)cc21` [Compound 9.51, 3-(6-(Cyclobutyl(cyclopropylmethyl)amino)-1-methyl-1H-pyrazolo[4,3-c]pyridin-3-yl)-2,6-difluoro-5-(trifluoromethyl)phenol], for which the IC50 was less than 100 nM.
With `CC(C)C1COCCN1c1cc2c(cn1)c(-c1cc(C(F)(F)F)c(F)c(O)c1F)nn2C` (stereo not shown) [Compound 9.52, 2,6-Difluoro-3-(6-(3-isopropylmorpholino)-1-methyl-1H-pyrazolo[4,3-c]pyridin-3-yl)-5-(trifluoromethyl)phenol], the IC50 was less than 100 nM.
Then `Cn1nc(-c2cc(C(F)(F)F)c(F)c(O)c2F)c2cnc(N3CCNC4(CC4)C3=O)cc21` [Compound 9.53, 7-(3-(2,4-Difluoro-3-hydroxy-5-(trifluoromethyl)phenyl)-1-methyl-1H-pyrazolo[4,3-c]pyridin-6-yl)-4,7-diazaspiro[2.5]octan-8-one], with 100 to 1000 nM.
As for `Oc1c(F)c(-c2nn(C3CCOCC3)c3cc(N4CCOCC45CC5)ncc23)cc(C(F)(F)F)c1F` [Compound 9.54, 3-(6-(7-Oxa-4-azaspiro[2.5]octan-4-yl)-1-(tetrahydro-2H-pyran-4-yl)-1H-pyrazolo[4,3-c]pyridin-3-yl)-2,6-difluoro-5-(trifluoromethyl)phenol], the IC50 was less than 100 nM.
Next, `Oc1c(F)c(-c2nn(C3COC3)c3cc(N4CCOCC45CC5)ncc23)cc(C(F)(F)F)c1F` [Compound 9.55, 2,6-Difluoro-3-(1-(oxetan-3-yl)-6-(7-oxa-4-azaspiro [2.5]octan-4-yl)-1H-pyrazolo[4,3-c]pyridin-3-yl)-5-(trifluoromethyl)phenol]: less than 100 nM.
Regarding `Oc1c(F)c(-c2nn(C3CCC3)c3cc(N4CCOCC45CC5)ncc23)cc(C(F)(F)F)c1F` [Compound 9.56, 3-(1-Cyclobutyl-6-(7-oxa-4-azaspiro[2.5]octan-4-yl)-1H-pyrazolo[4,3-c]pyridin-3-yl)-2,6-difluoro-5-(trifluoromethyl)phenol], the IC50 is less than 100 nM.
Turning to `Cn1nc(-c2cc(C(F)(F)F)c(F)c(O)c2F)c2cnc(N3CCOCC3)cc21` [Compound 9.57, 2,6-Difluoro-3-(1-methyl-6-morpholino-1H-pyrazolo[4,3-c]pyridin-3-yl)-5-(trifluoromethyl)phenol], the half-maximal inhibitory concentration (IC50) is less than 100 nM.
Consider `Cn1nc(-c2cc(C(F)(F)F)c(F)c(O)c2F)c2cnc(N3CCCOCC3)cc21` [Compound 9.58, 2,6-Difluoro-3-(1-methyl-6-(1,4-oxazepan-4-yl)-1H-pyrazolo[4,3-c]pyridin-3-yl)-5-(trifluoromethyl)phenol], for which the IC50 is less than 100 nM.
`Cn1nc(-c2cc(C(F)(F)F)c(F)c(O)c2F)c2cnc(N3CCCCC34CCC4)cc21` [Compound 9.59, 2,6-Difluoro-3-(1-methyl-6-(5-azaspiro[3.5]nonan-5-yl)-1H-pyrazolo[4,3-c]pyridin-3-yl)-5-(trifluoromethyl)phenol]: the IC50 is less than 100 nM.
With `COCC1COCCN1c1cc2c(cn1)c(-c1cc(C(F)(F)F)c(F)c(O)c1F)nn2C` (stereo not shown) [Compound 9.60, 2,6-Difluoro-3-(6-(3-(methoxymethyl)morpholino)-1-methyl-1H-pyrazolo[4,3-c]pyridin-3-yl)-5-(trifluoromethyl)phenol], the IC50 was less than 100 nM.
Then `Cn1nc(-c2cc(C(F)(F)F)c(F)c(O)c2F)c2cnc(N3CCOCC3C3(C)CC3)cc21` (stereo not shown) [Compound 9.61, 2,6-Difluoro-3-(1-methyl-6-(3-(1-methylcyclopropyl)morpholino)-1H-pyrazolo[4,3-c]pyridin-3-yl)-5-(trifluoromethyl)phenol], with less than 100 nM.
For `CC(=O)N1CCN(c2cc3c(cn2)c(-c2cc(C(F)(F)F)c(F)c(O)c2F)nn3C)CC1` [Compound 9.62, 1-(4-(3-(2,4-Difluoro-3-hydroxy-5-(trifluoromethyl)phenyl)-1-methyl-1H-pyrazolo[4,3-c]pyridin-6-yl)piperazin-1-yl)ethanone], the IC50 was in the range of 100 to 1000 nM.
For `CC(C)N1CCN(c2cc3c(cn2)c(-c2cc(C(F)(F)F)c(F)c(O)c2F)nn3C)CC1=O` [Compound 9.63, 4-(3-(2,4-Difluoro-3-hydroxy-5-(trifluoromethyl)phenyl)-1-methyl-1H-pyrazolo[4,3-c]pyridin-6-yl)-1-isopropylpiperazin-2-one], the IC50 was less than 100 nM.
Next, `CN(CC1CCOCC1)c1cc2c(cn1)c(-c1cc(C(F)(F)F)c(F)c(O)c1F)nn2C` [Compound 9.64, 2,6-Difluoro-3-(1-methyl-6-(methyl((tetrahydro-2H-pyran-4-yl)methyl)amino)-1H-pyrazolo[4,3-c]pyridin-3-yl)-5-(trifluoromethyl)phenol]: less than 100 nM; `CN(C)C(=O)C1CN(c2cc3c(cn2)c(-c2cc(C(F)(F)F)c(F)c(O)c2F)nn3C)CCO1` (stereo not shown) [Compound 9.65, 4-(3-(2,4-Difluoro-3-hydroxy-5-(trifluoromethyl)phenyl)-1-methyl-1H-pyrazolo[4,3-c]pyridin-6-yl)-N,N-dimethylmorpholine-2-carboxamide]: 100 to 1000 nM; `CC(=O)N1CCC(N(C)c2cc3c(cn2)c(-c2cc(C(F)(F)F)c(F)c(O)c2F)nn3C)CC1` [Compound 9.66, 1-(4-((3-(2,4-Difluoro-3-hydroxy-5-(trifluoromethyl)phenyl)-1-methyl-1H-pyrazolo[4,3-c]pyridin-6-yl)(methyl)amino)piperidin-1-yl)ethanone]: less than 100 nM.
Next, `Cn1nc(-c2cc(C(F)(F)F)c(F)c(O)c2F)c2cnc(N3CCOCC3C3CCC3)cc21` (stereo not shown) [Compound 9.67, 3-(6-(3-Cyclobutylmorpholino)-1-methyl-1H-pyrazolo[4,3-c]pyridin-3-yl)-2,6-difluoro-5-(trifluoromethyl)phenol]: less than 100 nM; `CN1CCN(c2cc3c(cn2)c(-c2cc(C(F)(F)F)c(F)c(O)c2F)nn3C)CC1=O` [Compound 9.68, 4-(3-(2,4-Difluoro-3-hydroxy-5-(trifluoromethyl)phenyl)-1-methyl-1H-pyrazolo[4,3-c]pyridin-6-yl)-1-methylpiperazin-2-one]: less than 100 nM; `Cn1nc(-c2cc(C(F)(F)F)c(F)c(O)c2F)c2cnc(N3CCCOCC34CC4)cc21` [Compound 9.69, 2,6-Difluoro-3-(1-methyl-6-(8-oxa-4-azaspiro[2.6]nonan-4-yl)-1H-pyrazolo[4,3-c]pyridin-3-yl)-5-(trifluoromethyl)phenol]: less than 100 nM.
Regarding `Cn1nc(-c2cc(C(F)(F)F)c(F)c(O)c2F)c2cnc(N3CCOCCC34CC4)cc21` [Compound 9.70, 2,6-Difluoro-3-(1-methyl-6-(7-oxa-4-azaspiro[2.6]nonan-4-yl)-1H-pyrazolo[4,3-c]pyridin-3-yl)-5-(trifluoromethyl)phenol], the IC50 was less than 100 nM.
For the molecule `Oc1c(F)c(-c2nn(C3CCCOC3)c3nc(N4CCOCC45CC5)ccc23)cc(C(F)(F)F)c1F` (stereo not shown) [Compound 9.71, 3-(6-(7-Oxa-4-azaspiro[2.5]octan-4-yl)-1-(tetrahydro-2H-pyran-3-yl)-1H-pyrazolo[3,4-b]pyridin-3-yl)-2,6-difluoro-5-(trifluoromethyl)phenol], the IC50 lay in the range of 100 to 1000 nM.
